# Results from PMC10290391, “Targeted degradation of ⍺-synuclein aggregates in Parkinson’s disease using the AUTOTAC technology” (Molecular Neurodegeneration, 2023).
# Tested on: α-syn PFF-injected mouse model
# Type: in vivo
# Conditions: 10 mg/kg oral
# Description: Mice were anesthetized and perfused with PBS and 4% paraformaldehyde. Brains were sectioned at 30 μm thickness by vibratome (Leica). Free-floating sections were blocked with PBS containing 5% serum and 0.3% Triton X-100 for 1 h. The sections were then incubated with an anti-tyrosine hydroxylase (TH) antibody (1:5,000, Sigma, T1299) overnight at 4℃. The sections were incubated with biotinylated secondary antibody for 1 h at room temperature. The signal amplification was achieved by the ABC kit (Vector) followed by development with DAB (Vector). TH^+ optical density was measured in three brain sections per animal. Images of the ipsilateral and contralateral striatal area were obtained using an Axio scan Z1 slide scanner (Zeiss). Images were converted to grayscale via Image J, and the intensity was analyzed. Normalized values across the sections were used to compare the relative TH^+ optical density.
# Intrastriatal injection of α-syn fibrils was performed in C57BL6/J male mice at 8 weeks of age. 5 µg of α-syn fibrils were sonicated and injected into the dorsal striata in mice at the empirically derived coordinates: 1.0 mm anterior and 1.5 mm lateral to the Bregma, and 3.0 mm ventral relative to the skull in the course of 20 min. Scalp incisions were closed by suture. […]
# Brain sections were cut into 30 µm on a freezing microtome, and stored in tissue storage solution at -20 °C. Sections were washed with PBS and incubated with blocking buffer (2% normal goat serum, 1% BSA, 1% Triton X-100, and Tween-20 in PBS) for 1 h at room temperature. After washing with PBS, sections were incubated with primary antibodies (pS129-α-syn, GFAP) overnight at 4 °C, followed by secondary Goat anti-mouse AlexaFluor488 and Goat anti-rabbit AlexaFluor555 for 1 h at room temperature. Images were processed by Axio Scan Z1 (Carl Zeiss). In order to quantify the number of neurons in the PFF-injected striatum, the brain sections were stained with 0.1% crystal violet solution containing 0.1% acetic acid for 1 min at 50 ℃ and then rinsed in distilled water. Sections were dehydrated in 95% and 100% alcohol and mounted on slides.
# The behavioral tests were performed according to IACUC approval (AUTOTAC Bio Inc., ATB-2107–06-1). The previously generated PFF-injected mouse model was used. For the forelimb grip strength test, a grip strength meter (Bioseb, BIO-GS3) was used. Three consecutive measurements were done for each mouse, and the average was calculated. For the motor coordination test, a rotarod (Bioseb, BX-ROD) was used. Each trial consisted of three attempts.
smiles,measurement,setting,value
"Fc1ccc(COc2cccc(CNCCOCCOCCNc3cccc(-c4cc(-c5ccc6c(c5)OCO6)n[nH]4)c3)c2)cc1 [ATC161, 3-(3-(benzo[d][1,3]dioxol-5-yl)-1H-pyrazol-5-yl)-N-(2-(2-(2-((3-((4-fluorobenzyl)oxy)benzyl)amino)ethoxy)ethoxy)ethyl)aniline]","neuronal cell death (Nissl staining, injection site)",,did not induce neuronal cell death
same,increase in time on rotarod,"5 times per week, 16 weeks",59%
same,number of GFAP+ signals in striata near endopiriform nucleus,9 weeks (45 treatments),reduced the number of GFAP^+ signals
same,TH+ fiber level in ipsilateral striatum,16 weeks,reversed the TH^+ level to the extent of control group
same,number of p-α-syn+ aggregates in the contralateral striata,16 weeks,attenuated the number of p-α-syn^+ aggregates
same,peak grip force of fore- and hindlimbs,16 weeks,increased the peak grip force of fore- and hindlimbs to the extent of control group
same,number of p-α-syn+ aggregates in the injection sites,"16 weeks, vs vehicle",reduced the number of p-α-syn^+ aggregates
